Assay results published in article PMC11123956, “Nobiletin Stimulates Adrenal Hormones and Modulates the Circadian Clock in Mice” (Nutrients, 2024).

Assays:
PDE4B1 = target: T1, PDE4B1 (Homo sapiens, UniProt Q07343); assay: PDE enzyme (kinase) assay, PDE4B1; assay type: biochemical
T1 construct: purchased Eurofins Panlabs Discovery Services Taiwan, Ltd. (contract assay); host or cells: insect Sf9 cells
Description: (§1) Enzyme assays for various subtypes of PDE (Table 1 and Figure 4) were conducted by Eurofins Panlabs Discovery Services Taiwan, Ltd. (New Taipei City, Taiwan). In the assays, five or six concentrations of nobiletin over five or six orders of magnitude were examined in experiments conducted in duplicate to determine the IC50 (concentration of nobiletin exerting half-maximal inhibition of control-specific activity). IC50 values were determined by nonlinear least squares regression analysis using MathIQTM (ID Business Solutions Ltd., Woking, UK). FAM-cAMP, FAM-cGMP (0.1 μM), and 100 μM [^3H]cGMP + cGMP were used for the substrate in the human recombinant insect Sf9 cells or Bovine retinal rod outer segments depending on the PDE subtype. The spectrofluorometric quantitation of fluorescein-AMP-IMAP, fluorescein-GMP-IMAP, or [^3H] guanosine was used depending on the PDE subtype. A known […] of each PDE was used as the positive control.
Figure 4 PDE kinase assays and the acute clock gene expression changes by PDE4 inhibitor or ROR α/γ agonist. (A) Inhibitory effect of nobiletin on PDE4A1, 4B1, and 10A2. Various concentrations of nobiletin (1–100 μM) were used for IC50 determination (Table 1). Values represent the mean of two experiments. Positive controls were rolipram for PDE4A1 and 4B1 and papaverine for PDE10A2. […]

Per2 mRNA = assay: Real-time RT-PCR of Per2 mRNA in peripheral tissues; assay type: in vivo, mice; conditions: liver, an hour after treatment
Description: Male C57BL/6J mice (7 weeks old) were purchased from Charles River Japan (Kanagawa, Japan) and used for the serum hormone assay and RT-PCR. Male ICR mice were purchased from Tokyo Laboratory Animals Science Co., Ltd. (Tokyo, Japan), and female PERIOD2::LUCIFERASE (PER2::LUC) knock-in mice (ICR background) bred at Waseda University were used for blood glucose measurements and in vivo imaging assays, respectively. The mice were all housed under conditions of controlled temperature (23 °C ± 3 °C), humidity (50% ± 20%), and lighting (lights on from 07:00 to 19:00 at Taisho Pharmaceutical Co., Ltd. or from 08:00 to 20:00 at Waseda University). In the 24 h cycle, Zeitgeber time 0 (ZT0) was designated as the time when the lights were turned on, and ZT12 was designated as the time when the lights were turned off. All the mice were given access to food and tap water ad libitum, and nobiletin (10–100 mg/kg; purchased from FUJIFILM Wako Pure Chemical Corporation, Osaka, Japan) was administered by intraperitoneal (i.p.) injection in the vehicle (10 mL/kg body weight) containing 0.5% carboxymethyl cellulose (CMC). Rolipram (PDE4 inhibitor, FUJIFILM Wako Pure Chemical Corporation) and SR1078 (RORα/γ agonist, FUJIFILM Wako Pure Chemical Corporation) were also used for the experiment at 10 mg/kg in 0.5% CMC [12]. Mice were euthanized by rapid decapitation for whole blood samples. […]

PDE6 = target: T2, PDE6 (Bos taurus, UniProt P11541+P23439); assay: PDE enzyme  assay, PDE6; assay type: biochemical, Bovine
T2 construct: Bovine retinal rod outer segments; tissue Eurofins Panlabs Discovery Services Taiwan, Ltd. (contract assay); host or cells: bovine retinal rod outer segments
Description: as §1

T1 sequence (Q07343 whole entry): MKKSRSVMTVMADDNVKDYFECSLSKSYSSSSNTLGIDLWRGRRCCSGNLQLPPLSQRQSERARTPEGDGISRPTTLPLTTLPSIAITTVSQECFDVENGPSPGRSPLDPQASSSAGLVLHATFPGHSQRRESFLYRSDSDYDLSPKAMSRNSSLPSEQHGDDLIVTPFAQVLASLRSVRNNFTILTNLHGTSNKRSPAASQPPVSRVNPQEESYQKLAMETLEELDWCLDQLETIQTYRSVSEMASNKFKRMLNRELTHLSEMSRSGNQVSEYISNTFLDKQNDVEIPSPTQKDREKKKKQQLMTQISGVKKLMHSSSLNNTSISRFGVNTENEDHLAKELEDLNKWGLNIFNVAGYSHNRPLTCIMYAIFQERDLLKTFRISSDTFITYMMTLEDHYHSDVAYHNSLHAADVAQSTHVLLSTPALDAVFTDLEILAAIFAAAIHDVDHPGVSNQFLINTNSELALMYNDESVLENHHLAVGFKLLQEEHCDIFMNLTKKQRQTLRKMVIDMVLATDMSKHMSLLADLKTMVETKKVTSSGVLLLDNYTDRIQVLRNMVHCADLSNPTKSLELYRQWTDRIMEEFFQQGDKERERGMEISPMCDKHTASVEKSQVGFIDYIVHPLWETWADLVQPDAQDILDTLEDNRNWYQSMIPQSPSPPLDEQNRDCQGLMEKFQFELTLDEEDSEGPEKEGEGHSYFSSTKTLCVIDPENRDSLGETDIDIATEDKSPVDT
T2 sequence (P11541 2-856 limits assumed): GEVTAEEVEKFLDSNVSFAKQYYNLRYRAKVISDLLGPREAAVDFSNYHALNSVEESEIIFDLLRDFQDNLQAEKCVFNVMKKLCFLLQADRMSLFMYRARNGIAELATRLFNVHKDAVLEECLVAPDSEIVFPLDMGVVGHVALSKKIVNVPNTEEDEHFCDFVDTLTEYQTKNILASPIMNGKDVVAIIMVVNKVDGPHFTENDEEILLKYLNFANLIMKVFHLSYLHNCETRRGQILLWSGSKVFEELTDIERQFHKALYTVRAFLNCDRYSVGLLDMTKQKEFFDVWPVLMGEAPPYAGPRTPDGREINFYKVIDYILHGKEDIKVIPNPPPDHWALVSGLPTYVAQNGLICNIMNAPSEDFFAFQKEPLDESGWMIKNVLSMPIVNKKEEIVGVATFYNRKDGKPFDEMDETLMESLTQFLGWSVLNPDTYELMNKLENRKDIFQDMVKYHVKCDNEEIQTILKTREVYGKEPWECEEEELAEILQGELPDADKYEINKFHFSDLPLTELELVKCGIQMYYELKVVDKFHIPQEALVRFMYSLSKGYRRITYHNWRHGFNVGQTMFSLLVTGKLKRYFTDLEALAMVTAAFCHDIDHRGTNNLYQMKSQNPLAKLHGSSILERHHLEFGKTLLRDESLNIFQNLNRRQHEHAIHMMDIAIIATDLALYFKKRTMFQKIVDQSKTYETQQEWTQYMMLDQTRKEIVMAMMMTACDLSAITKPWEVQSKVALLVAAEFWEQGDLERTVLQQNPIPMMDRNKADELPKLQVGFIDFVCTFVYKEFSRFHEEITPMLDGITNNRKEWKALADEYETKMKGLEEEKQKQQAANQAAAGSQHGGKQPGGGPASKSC
T2 sequence (P23439 2-850 limits assumed): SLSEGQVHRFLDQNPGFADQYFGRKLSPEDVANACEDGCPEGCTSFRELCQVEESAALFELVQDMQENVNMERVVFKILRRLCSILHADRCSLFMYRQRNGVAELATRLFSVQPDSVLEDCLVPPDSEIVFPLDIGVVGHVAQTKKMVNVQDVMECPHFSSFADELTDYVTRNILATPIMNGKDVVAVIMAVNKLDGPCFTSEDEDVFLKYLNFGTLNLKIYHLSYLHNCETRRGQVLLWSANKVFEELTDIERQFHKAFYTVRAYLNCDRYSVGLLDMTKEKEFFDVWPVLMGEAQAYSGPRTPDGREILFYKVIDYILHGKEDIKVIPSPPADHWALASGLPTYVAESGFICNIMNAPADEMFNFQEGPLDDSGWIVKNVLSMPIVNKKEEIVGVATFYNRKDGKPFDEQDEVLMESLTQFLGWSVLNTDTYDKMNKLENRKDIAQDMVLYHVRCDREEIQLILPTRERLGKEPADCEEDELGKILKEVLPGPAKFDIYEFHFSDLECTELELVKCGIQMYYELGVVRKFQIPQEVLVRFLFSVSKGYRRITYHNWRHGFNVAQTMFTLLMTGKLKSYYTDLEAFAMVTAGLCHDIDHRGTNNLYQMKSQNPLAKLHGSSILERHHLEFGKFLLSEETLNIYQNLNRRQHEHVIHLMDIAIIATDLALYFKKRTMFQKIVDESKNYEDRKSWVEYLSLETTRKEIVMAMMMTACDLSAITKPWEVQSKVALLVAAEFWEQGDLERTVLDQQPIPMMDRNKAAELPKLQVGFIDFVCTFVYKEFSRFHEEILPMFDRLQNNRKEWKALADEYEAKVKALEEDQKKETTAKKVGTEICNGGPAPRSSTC

## COc1ccc(-c2cc(=O)c3c(OC)c(OC)c(OC)c(OC)c3o2)cc1OC [nobiletin]
PDE4B1; IC50, PDE4B1, bound stated in the discussion
  IC50: ≤ 6.03 µM
PDE4B1; IC50 Dose, PDE4B1, duplicate
  IC50: 6.03 µM
Per2 mRNA
  Per2 expression: decreased significantly
PDE6
  IC50: 74.5 µM
